Work on `COc1ccc2[nH]c3c(c2c1[N+](=O)[O-])CCC3=O` yielded a melting point of 293 °C.
Work on `Cc1cc(NNC(=O)OC(C)(C)C)nnc1-c1cccc([N+](=O)[O-])c1` yielded a melting point of 160 to 162 °C.
`CCc1nc(-c2cccc(C)c2)c(-c2ccnc(CC#N)c2)s1` showed a melting point of 68 to 69 °C.
Compound `NS(=O)(=O)c1cc2cc3c(cc2[nH]1)OCO3` has a melting point of 234 to 237 °C.
Compound `COc1cccc([C@H]2O[C@H](CC(=O)NC(C)CC(=O)O)C(=O)N(CC(C)(C)C)c3ccc(Cl)cc32)c1OC` (stereo not given in full) has a melting point of 128 to 130 °C.
Compound `Cc1[nH]cnc1Cc1cccc(CO)c1O` has a melting point of 126 to 130 °C.
In the case of `COC1CC(N)C(O)C(C)O1` (stereo not given), the melting point is reported as 130 °C.
`CSc1nn2c(=O)[nH]c(C)nc2c1S(=O)(=O)c1ccccc1` gave a melting point greater than 300 °C.
`CCCN(Cc1ccc(C(=O)N(CCC)C2CCc3ncsc3C2)cc1)C1CCc2ncsc2C1` (stereo not given) showed a melting point of 85 °C.
`Nc1nc2c(s1)CCN(CC=Cc1c[nH]c3ccccc13)CC2` gave a melting point of 155 to 160 °C.
With `CC(=O)N1CCC(C(=O)N(CCCN2CC3CN(C(=O)c4c(C)ccnc4C)CC3C2)c2ccc(C)c(Cl)c2)CC1` (stereo not given) the melting point was 81.5 to 83.6 °C.
For `NCCNS(=O)(=O)c1cc(NC(=O)c2cnn3c(C(F)(F)F)cc(-c4ccc(C(F)(F)F)cc4)nc23)c(Cl)s1`, the melting point was 195 °C.
`COc1ccc2nc(N3CCN(C[C@H]4COc5ccc6nc(C)ccc6c5O4)CC3)ccc2c1` showed a melting point of 95 to 97 °C.
In the case of `O=C(O)CS(=O)(=O)Nc1c(F)cc(F)cc1F`, the melting point is reported as 126 to 127 °C.
Compound `CCN(CC)CCCCC(=O)c1ccc2c(c1)Cc1cc(C(=O)CCCCN(CC)CC)ccc1-2` has a melting point of 78 to 80 °C.
Work on `O=C(O)Cn1c(=O)c2ccccc2n(CCCCN2CCC(OC(c3ccccc3)c3ccccc3)CC2)c1=O` yielded a melting point of 184 to 186 °C.
Compound `Brc1ccc2c(c1)/C(=C\CN1CCCC1)c1ccccc1CO2` has a melting point of 108 to 109 °C.
In the case of `CCOC(=O)c1ccc(CC(=O)NC(CC(C)C)c2ccccc2N2CCCCC2)cc1OCC` (stereo not given), the melting point is reported as 111 to 112 °C.
With `C=CC(O)(c1ccc(Cl)cc1)c1cccnc1` (stereo not given) the melting point was 82.5 to 84 °C.
Compound `O=c1[nH]c2ccc(F)c(F)c2c(=O)o1` has a melting point greater than 240 °C.
With `Cc1oc(-c2ccco2)nc1COc1ccc(Cn2cc(CC(=O)O)c(-c3ccccc3)n2)cn1` the melting point was 135 to 136 °C.
Compound `COc1cc(Br)c(CCC#N)cc1OC` has a melting point of 78 to 80 °C.
Compound `CSc1nc2c(OCc3ccccc3)cccc2n1CCCO` has a melting point of 106 to 107 °C.
Work on `O=C1C=C(c2ccccc2)CC(C(=O)O)C1` (stereo not given) yielded a melting point of 140 to 160 °C.
For `CC(=O)NC1CC(C)(C)N(OC(C)=O)C(C)(C)C1`, the melting point was 129 to 132 °C.
Work on `Cc1nccn1-c1cccc(C2=Nc3ccc(-c4ccccc4F)cc3NC(=O)C2)c1` yielded a melting point of 187 °C.
Work on `Nc1cc(CCC(=O)Nc2ccc(Cl)cc2Cl)ccc1O` yielded a melting point of 130 to 131 °C.
In the case of `O=[N+]([O-])c1cc(C2OCCCO2)ccc1O`, the melting point is reported as 70 to 71 °C.
Compound `CC(=O)OCC(C)(C)c1ccc(S(N)(=O)=O)cc1` has a melting point of 156 to 158 °C.
In the case of `CCCNc1ccc2oc([N+](=O)[O-])c(-c3ccccc3)c2c1`, the melting point is reported as 158 to 160 °C.
For `CNc1nc(N)nc2c1nnn2Cc1ccccc1F`, the melting point was 252 to 254 °C.
In the case of `COc1cc(CN2CCN(c3ccc(C(=O)NC4CC4)cc3C)CC2)cc2c1OCC(=O)N2`, the melting point is reported as 220 to 228 °C.
For `Clc1cc2c(cc1Cl)Nc1ccccc1C(NCc1cccnc1)=N2`, the melting point was 209 to 210 °C.
With `O=C1CCC(N2Cc3c(OCc4ccc(CN5CCOCC5)c(Cl)c4)cccc3C2=O)C(=O)N1` (stereo not given) the melting point was 240 to 242 °C.
`COCc1nn(-c2cccc(NC(C)=O)c2)c(=O)n(Cc2ccc(Cl)cc2)c1=O` gave a melting point of 97 °C.
Work on `NC(=O)N1c2ccccc2C=C([N+](=O)[O-])c2ccccc21` yielded a melting point of 208 to 212 °C.
Work on `Cc1nc2cccc(OCC(C)C)c2c(N)c1C(=O)O` yielded a melting point of 204 °C.
With `Cc1ccccc1-n1nnc2cnc3ccccc3c21` the melting point was 140 to 142 °C.
Work on `C=CCOC(=O)c1ccc(N=Cc2ccc3c(c2Cl)C(C)(C)CCC3(C)C)cc1` yielded a melting point of 80 °C.
For `CCN(SN(C)C=Nc1ccc(Cl)cc1C)c1ccccc1`, the melting point was 51.5 to 53 °C.
`CCOC(=O)c1cn2c3c(c(-c4ccc(S(N)(=O)=O)cc4)c(F)cc3c1=O)OCC2C` (stereo not given) showed a melting point greater than 250 °C.
With `CCC1(CC)c2cc(-c3nc4ccccc4s3)ccc2-c2ccc(N(c3ccc(Oc4ccc(N)cc4)cc3)c3ccc(Oc4ccc(N)cc4)cc3)cc21` the melting point was 192 to 194 °C.
With `O=C(c1ccc(Cl)cc1)c1ccc(Cc2c(Cl)cc(N3N=CCNC3=O)cc2Cl)cc1` the melting point was 205 to 206 °C.
`CCOC(=O)C[C@@H](CCCc1ccncc1)C(=O)N[C@H]1Cc2cn(c3ccccc23)CCOCCNC1=O` showed a melting point of 203 to 205 °C.
`CCc1cccc2c(/C(C)=C/C(=O)O)cc(OC)c(OCOC)c12` showed a melting point of 114 to 115 °C.
For `O=C(NCCn1cncn1)c1ccc(Cl)nc1`, the melting point was 186 to 188 °C.
Work on `Cc1n[nH]c(NCCCCOc2cccc(CN3CCCCC3)c2)n1` yielded a melting point of 138 to 139 °C.
For `COc1ccc(C(C#Cc2ccccc2)Cc2nnc(C)o2)cc1OC1CCCC1` (racemic), the melting point was 105 to 106 °C.
Compound `NC(=O)c1c(Cl)c(-c2ccccc2)n2c1CN(C(=O)CCC1CCCCC1)CC2` has a melting point of 181 to 182 °C.
`Cc1cc(=O)c(-c2ccc(C#N)cc2)c(C)[nH]1` gave a melting point of 192 to 195 °C.
In the case of `O=C(O)C(=O)c1ccco1`, the melting point is reported as 81 to 91 °C.
For `CC(S)C(=O)N1c2ccccc2CCC1C(=O)O` (stereo not given), the melting point was 141 to 143 °C.
In the case of `COC(=O)[C@@H]1C[C@H](C(=O)OC(C)(C)C)N(C(=O)CNC(=O)OC(C)(C)C)[C@@H]1c1ccccc1F` (racemic), the melting point is reported as 142 °C.
With `COC(=O)c1nc(N=C=S)ccc1Oc1nc(OC)cc(OC)n1` the melting point was 116 to 117 °C.
Work on `OC1(CN2CC2)COc2ccccc2OC1` yielded a melting point of 98 to 99.5 °C.
`COc1ccc(COc2ccc([N+](=O)[O-])cc2)cc1` gave a melting point of 122 to 124 °C.
In the case of `CCOC(=O)C(CC)Cc1ccc(NC(=O)Cc2ccc(-n3cccc3)cc2)cc1` (stereo not given), the melting point is reported as 100 to 102 °C.
For `Nc1nc2ccccc2n1-c1cccc(-c2ccc3[nH]ccc3c2)c1`, the melting point was 120 to 123 °C.
With `CCCCCC(O)C#CCCCCCCC#Cc1ccc(O)c(O)c1` (stereo not given) the melting point was 46 to 48 °C.
Compound `CCNS(=O)(=O)c1nc2cc(C(=O)c3ccccc3)ccc2[nH]1` has a melting point of 250 to 253 °C.
Work on `CCNC(C)CCC1(C(N)=O)c2ccccc2-c2ccccc21` (stereo not given) yielded a melting point of 180 to 182 °C.
With `Cn1nccc1COc1nn2c(-c3ccccc3F)nnc2cc1C1CCC1` the melting point was 184 to 186 °C.
`N#CC1(N)CCSCC1` showed a melting point of 51 to 52 °C.
`O=C(O)c1ccc2c(c1)S(=O)(=O)c1cc(C(=O)O)ccc1O2` gave a melting point of 399 to 401 °C.
Work on `Cc1nc2cccc3n(CCCNS(=O)(=O)CC(F)(F)F)c(=O)c1n23` yielded a melting point of 157 to 158 °C.
Compound `CC=CC(=O)Oc1cc(C)nc(C(Cl)(Cl)Cl)n1` has a melting point of 55 °C.
`COC(=O)c1sc(C)c(C#N)c1N(C(=O)OC(C)(C)C)C(=O)OC(C)(C)C` showed a melting point of 97 to 102 °C.
Work on `Cc1nccn1-c1ccc(Sc2cccc(C3(C(N)=O)CCOCC3)c2)cc1` yielded a melting point of 184 to 185 °C.
Compound `CC(C)N(CCOc1ccc(CC2SC(=O)NC2=O)cc1)c1nc2ccccc2o1` (stereo not given) has a melting point of 66 °C.
`C=CCn1nc(-c2ccc(O)cc2O)c2cccc(C(F)(F)F)c21` showed a melting point of 114 to 115 °C.
`CN1C(=O)N(N=Cc2cccnc2)Cc2cc(C(F)(C(F)(F)F)C(F)(F)F)ccc21` showed a melting point greater than 300 °C.
For `COC(=O)C1=C(C)NC(C)=C(C(=O)OCC2CCCO2)C1c1ccc(Cl)c([N+](=O)[O-])c1` (stereo not given), the melting point was 148 to 150 °C.
`COc1ccc(Nc2ccc(OCc3ccccc3)cc2)cc1` showed a melting point of 108 °C.
`O=C(O)C1Cc2c([nH]c3ccccc23)CN1C(=S)SC1CCCCC1` (stereo not given) showed a melting point of 150 to 151 °C.
`CCCCCCNC1=CC(=O)c2c(OC)ccc(OC)c2C1=O` gave a melting point of 83 to 84 °C.
Work on `COc1cc2c(-c3ccnc(NN)c3)c(CO)c(CO)cc2cc1OCc1ccccc1` yielded a melting point of 155 to 157 °C.
`C=CCN(CC=C)C(=O)n1cnc(S(=O)CC)n1` (stereo not given) gave a melting point of 41 to 43 °C.
In the case of `N#Cc1ccc(CN2CCc3ccc(C(=O)CCCC4CCN(Cc5ccccc5Cl)CC4)cc3CC2)cc1`, the melting point is reported as 118 to 119 °C.
Work on `CNC(=O)c1ccccc1Nc1nc(Nc2ccc3c(c2)CCC(=O)CC3)ncc1Cl` yielded a melting point of 262 to 269 °C.
Compound `CCCCCCCCCCc1c(C)c(C)c(-c2n[nH]c3cc(C(C)(C)C)nn23)c(C)c1C` has a melting point of 194 to 195 °C.
Work on `CCCCCCC1(CCCCCC)c2ccccc2-c2ccccc21` yielded a melting point of 31 to 33 °C.
With `Cc1oc(-c2ccco2)nc1COc1ccc(CCl)cc1Cl` the melting point was 103 to 104 °C.
For `CC(C)(C)c1ccc(S(=O)(=O)N2c3ccccc3C[C@H]2C(=O)NCc2ccc(OCCC(=O)O)cc2)cc1`, the melting point was 75 °C.
Compound `CC1(C)OC(=O)C(Oc2ccc(Cl)nc2)=C1c1ccc(S(C)(=O)=O)cc1` has a melting point of 196 to 197 °C.
`Cc1cc(C(C)C)c(C=O)[nH]1` showed a melting point of 90 to 93 °C.
With `CCC=CC(c1cc(F)ccc1F)S(=O)(=O)c1ccc(Cl)cc1` (stereo not given) the melting point was 99 to 100 °C.
Compound `CCOC(=O)c1ccc(SCC)c(-c2cc(C)no2)c1C` has a melting point of 39 to 40 °C.
`CCN1C[C@@H](C(=O)OC(C)(C)C)N(C(=O)OCc2ccccc2)C1=O` showed a melting point of 97 °C.
In the case of `CCOc1cc2c(cc1Cc1ccc3c(c1)OCO3)OCO2`, the melting point is reported as 44 °C.
In the case of `O=C(O)c1ccc(-c2nnn[nH]2)nc1`, the melting point is reported as 257 to 259 °C.
In the case of `Cc1ncc([N+](=O)[O-])n1C(=O)Nc1ccccc1`, the melting point is reported as 218 to 220 °C.
`COC(=O)NCCOc1cc(Oc2ccc(C(F)(F)F)cc2Cl)ccc1[N+](=O)[O-]` showed a melting point of 91 to 92 °C.
Compound `C#CCCCON1Sc2cccc3cccc1c23` has a melting point of 56 to 59 °C.
In the case of `CCOC(=O)C1CN(c2ccc(OC)cc2)CC1=O` (stereo not given), the melting point is reported as 58 to 60 °C.
`CC(C)(CO)C(=O)C(Oc1ccc(Cl)cc1)n1cncn1` (stereo not given) gave a melting point of 110 to 111 °C.
`c1ccc(N2CC3CCC(C2)O3)cc1` showed a melting point of 84 to 85 °C.
With `c1cc(-n2ccnc2)cc(-n2cnc3cc(-c4ccoc4)cnc32)c1` the melting point was 202 to 204 °C.
For `Oc1ccc(-n2nc3ccc(Cl)cc3n2)c(O)c1`, the melting point was 188 to 189 °C.
For `Nc1cc(C2=NOC(c3cc(Cl)cc(Cl)c3)(C(F)(F)F)C2)ccc1C(=O)NCC(F)(F)F` (stereo not given), the melting point was 78 to 79 °C.
With `CC(=O)N1CCN(c2cc3c(c(C)c2F)c(=O)c(C(=O)O)cn3C2CC2)CC1` the melting point was 261 to 263 °C.

From a melting point compilation (Tetko et al.; mined from patent text by program, amines drawn as free bases though some values may be those of a salt)
